Data on 17 compounds can be found in patent US20240217967A1, “INDOLINE DERIVATIVES AS DDRS INHIBITORS” (CHIESI FARMACEUTICI S.P.A., priority 2021, published 2024).

Assay [1] deals with T1, DDR1 (Homo sapiens, UniProt Q08345). The experiment in a line: DDR1 LanthaScreen Europium Kinase Binding assay. The note with it: binding affinity; IC50 converted in Ki using Cheng-Prusoff; read-out: Ki DDR1. As to the method:
(§1) DDR1 and DDR2 binding assays were performed using Life Technologies LanthaScreen™ Europium Kinase Binding assay. The compounds were incubated with 5 nM DDR1 (Carna Biosciences) or 5 nM DDR2 (Life Technologies) for 1 hour at room temperature in white 384-well OptiPlate (PerkinElmer), containing 20 nM or 10 nM Kinase Tracer 178 respectively and 2 nM Europium labelled anti-GST antibody (Life Technologies) in assay buffer (50 mM HEPES pH 7.5, 10 mM MgCI2, 1 mM EGTA and 0.01% BRIJ35). The ratio of fluorescence emission 665 nm/615 nm after excitation at 340 nm was obtained using the Tecan Spark 20M plate reader. IC50 values were determined in GraphPad Prism 7.0 software, using 4 parameter model: log(inhibitor) vs. response. IC50 values were converted in Ki using the Cheng-Prusoff equation (Ki=IC50/(1+[Tracer]/Kd).

Assay [2] concerns the target T1, DDR1. The experiment in a line: DDR1 cell based assay (PathHunter U2OS DDR1, collagen II stimulation). The note with it: U2OS-DDR1 cells, bovine Type II Collagen stimulation. The procedure: The inhibition of DDR1 receptor activation by compounds was evaluated by PathHunter® U2OS DDR1 assay (Eurofins DiscoverX), according to the manufacturer's instructions. Briefly, U2OS-DDR1 cells were seeded in white 384-well plates at a density of 5000 cells/well and incubated for 2 hours at 37° C. and 5% CO2. Cells were then treated with compounds at different concentrations and incubated for 30 minutes, before stimulation with bovine Type II Collagen 20 μg/ml and incubation overnight at 37° C. and 5% CO2. PathHunter Detection Reagents were prepared according to the protocol provided by DiscoverX and 20 μl/well of this mix were added to each well. After incubating the plates for 1 hour at room temperature in the dark, luminescence signal was acquired with a plate reader. Raw data were normalized to vehicle control (0% for normalization) and positive control (100% for normalization; cells treated with 20 μg/ml collagen II) and IC50 parameters were calculated in GraphPad Prism 8.0 software, using sigmoidal dose-response curve fitting with variable slope.

A further assay addresses T2, DDR2 (Homo sapiens, UniProt Q16832).
T2 sequence (Q16832 22-855): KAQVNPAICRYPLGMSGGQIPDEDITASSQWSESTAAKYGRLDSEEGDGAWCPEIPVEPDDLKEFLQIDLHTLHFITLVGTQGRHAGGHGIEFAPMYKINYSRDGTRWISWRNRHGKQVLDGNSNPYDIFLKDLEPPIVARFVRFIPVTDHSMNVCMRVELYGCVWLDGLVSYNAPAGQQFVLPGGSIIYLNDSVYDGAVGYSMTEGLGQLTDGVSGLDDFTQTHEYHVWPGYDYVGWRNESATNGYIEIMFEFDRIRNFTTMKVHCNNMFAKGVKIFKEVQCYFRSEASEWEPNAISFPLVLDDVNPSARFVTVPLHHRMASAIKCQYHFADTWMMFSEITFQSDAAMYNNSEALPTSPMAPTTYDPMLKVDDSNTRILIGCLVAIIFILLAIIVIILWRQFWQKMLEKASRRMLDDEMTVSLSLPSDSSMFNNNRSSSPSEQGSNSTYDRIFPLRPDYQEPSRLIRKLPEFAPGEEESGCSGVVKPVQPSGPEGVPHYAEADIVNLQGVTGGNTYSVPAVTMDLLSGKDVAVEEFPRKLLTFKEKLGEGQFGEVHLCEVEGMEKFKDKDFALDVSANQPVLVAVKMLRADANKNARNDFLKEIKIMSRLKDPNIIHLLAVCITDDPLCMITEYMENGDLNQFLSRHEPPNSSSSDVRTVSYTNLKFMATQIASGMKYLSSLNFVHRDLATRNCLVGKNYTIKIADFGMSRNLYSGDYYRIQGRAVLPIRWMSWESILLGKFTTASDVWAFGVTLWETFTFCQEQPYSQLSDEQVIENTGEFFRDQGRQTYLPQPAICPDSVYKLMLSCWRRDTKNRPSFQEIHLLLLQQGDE
The experiment in a line: DDR2 LanthaScreen Europium Kinase Binding assay. The settings on record: binding affinity; IC50 converted in Ki using Cheng-Prusoff; read-out: Ki DDR2. The procedure: as §1

SMILES strings stand for the structures.

T1 sequence (Q08345 19-913): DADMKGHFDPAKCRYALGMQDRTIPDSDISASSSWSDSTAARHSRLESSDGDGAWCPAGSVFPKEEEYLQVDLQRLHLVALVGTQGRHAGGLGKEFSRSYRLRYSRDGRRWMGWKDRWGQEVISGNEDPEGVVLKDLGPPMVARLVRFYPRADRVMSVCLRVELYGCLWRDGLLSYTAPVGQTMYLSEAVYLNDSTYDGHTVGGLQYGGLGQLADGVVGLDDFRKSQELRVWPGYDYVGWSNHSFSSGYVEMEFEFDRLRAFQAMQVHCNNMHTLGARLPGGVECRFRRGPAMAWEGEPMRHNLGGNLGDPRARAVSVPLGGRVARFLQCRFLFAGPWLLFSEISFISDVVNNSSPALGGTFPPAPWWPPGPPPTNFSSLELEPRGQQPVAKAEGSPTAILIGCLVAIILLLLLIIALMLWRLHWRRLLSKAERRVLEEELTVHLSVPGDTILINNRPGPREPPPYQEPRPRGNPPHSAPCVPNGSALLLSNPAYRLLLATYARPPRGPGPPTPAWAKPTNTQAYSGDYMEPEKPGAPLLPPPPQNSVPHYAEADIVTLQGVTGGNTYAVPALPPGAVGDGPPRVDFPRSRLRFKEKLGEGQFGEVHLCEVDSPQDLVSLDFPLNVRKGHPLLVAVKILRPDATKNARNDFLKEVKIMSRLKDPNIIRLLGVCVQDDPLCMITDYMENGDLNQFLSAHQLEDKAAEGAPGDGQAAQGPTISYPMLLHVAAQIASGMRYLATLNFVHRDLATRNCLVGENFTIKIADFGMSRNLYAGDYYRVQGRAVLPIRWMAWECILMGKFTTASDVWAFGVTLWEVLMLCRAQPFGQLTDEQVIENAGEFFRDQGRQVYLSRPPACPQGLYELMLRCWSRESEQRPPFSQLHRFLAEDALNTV

`CN1CCC(Oc2ccc(NC(=O)c3ccc4c(c3)N(Cc3cnc5cnccn35)CC4)cc2C(F)(F)F)CC1` [Example 54, 1-(imidazo[1,2-a]pyrazin-3-ylmethyl)-N-(4-((1-methylpiperidin-4-yl)oxy)-3-(trifluoromethyl)phenyl)indoline-6-carboxamide]: the Ki on DDR1 [1] and on DDR2 was less than 25 nM throughout. Further, the IC50 (in general, the midpoint of a concentration-inhibition curve) at DDR1 [2] was 50 to 80 nM.

Consider `Cc1n[nH]c2ncc(CN3CCc4ccc(C(=O)Nc5cc(C(=O)NCCN(C)C)cc(C(F)(F)F)c5)cc43)cc12` [Example 73, N-(3-((2-(dimethylamino)ethyl)carbamoyl)-5-(trifluoromethyl)phenyl)-1-((3-methyl-1H-pyrazolo[3,4-b]pyridin-5-yl)methyl)indoline-6-carboxamide], for which the Ki on DDR1 [1] and on DDR2 was less than 25 nM in each case. Further, the IC50 against DDR1 [2] was less than 25 nM.

`O=C(Nc1cccc(C(F)(F)F)c1)c1ccc2c(c1)N(Cc1cnc3ccccn13)CC2` [Example 57, 1-(imidazo[1,2-a]pyridin-3-ylmethyl)-N-(3-(trifluoromethyl)phenyl)indoline-6-carboxamide]: the values for the inhibition constant (Ki) on DDR1 [1] and on DDR2 were 25 to 50 nM and 50 to 80 nM, respectively. At DDR1 [2], this compound gave an IC50 of 25 to 50 nM.

Turning to `Cc1n[nH]c2ncc(CN3CCc4ccc(C(=O)Nc5cc(CN6CC[C@@H](N(C)C)C6)cc(C(F)(F)F)c5)cc43)cc12` [Example 72, (R)-N-(3-((3-(dimethylamino)pyrrolidin-1-yl)methyl)-5-(trifluoromethyl)phenyl)-1-((3-methyl-1H-pyrazolo[3,4-b]pyridin-5-yl)methyl)indoline-6-carboxamide], the Ki at DDR1 [1] and on DDR2 was less than 25 nM throughout. For the same compound, on DDR1 [2], the concentration for half-maximal inhibition (IC50) is less than 25 nM.

With `CN1CCN(Cc2ccc(NC(=O)c3ccc4c(c3)N(Cc3cnn5ccncc35)CC4)cc2C(F)(F)F)CC1` [Example 86, N-(4-((4-methylpiperazin-1-yl)methyl)-3-(trifluoromethyl)phenyl)-1-(pyrazolo[1,5-a]pyrazin-3-ylmethyl)indoline-6-carboxamide], the Ki at DDR1 [1] and on DDR2 was less than 25 nM in each case. Also, the IC50 against DDR1 [2] fell in the range of 25 to 50 nM.

Consider `CN1CCN(Cc2cc(NC(=O)c3ccc4c(c3)N(C(=O)c3cnc5cnccn35)CC4)cc(C(F)(F)F)c2)CC1` [Example 15, 1-(imidazo[1,2-a]pyrazine-3-carbonyl)-N-(3-((4-methylpiperazin-1-yl)methyl)-5-(trifluoromethyl)phenyl)indoline-6-carboxamide], for which the Ki at DDR1 [1] and at DDR2 was less than 25 nM throughout. In addition, the half-maximal inhibitory concentration (IC50) at DDR1 [2] lay in the range of 50 to 80 nM.

For `CN1CCN(Cc2cc(C(=O)Nc3ccc4c(c3)N(Cc3cnc5cnccn35)CC4)cc(C(F)(F)F)c2)CC1` [Example 18, N-(1-(imidazo[1,2-a]pyrazin-3-ylmethyl)indolin-6-yl)-3-((4-methylpiperazin-1-yl)methyl)-5-(trifluoromethyl)benzamide], the Ki on DDR1 [1] and on DDR2 was less than 25 nM throughout. Moreover, on DDR1 [2], the IC50 was 25 to 50 nM.

Consider `COc1ccc(NC(=O)c2ccc3c(c2)N(Cc2cnc4cnccn24)CC3)cc1C(F)(F)F` [Example 46, 1-(imidazo[1,2-a]pyrazin-3-ylmethyl)-N-(4-methoxy-3-(trifluoromethyl)phenyl)indoline-6-carboxamide], for which the Ki (in general, a measure of affinity in units of concentration, obtained from inhibition or displacement) on DDR1 [1] was less than 25 nM; on DDR2, 25 to 50 nM. For the same compound, the 50% inhibitory concentration (IC50) on DDR1 [2] lay within 50 to 80 nM.

Turning to `CN1CCN(Cc2cc(NC(=O)c3ccc4c(c3)N(Cc3cnc5ccccn35)CC4)cc(C(F)(F)F)c2)CC1` [Example 11, 1-(imidazo[1,2-a]pyridin-3-ylmethyl)-N-(3-((4-methylpiperazin-1-yl)methyl)-5-(trifluoromethyl)phenyl)indoline-6-carboxamide], the Ki at DDR1 [1] and on DDR2 was less than 25 nM throughout. Moreover, the half-inhibitory concentration (IC50) at DDR1 [2] lay within 50 to 80 nM.

Turning to `CC(C)(C)c1cc(NC(=O)c2ccc3c(c2)N(Cc2cnc4[nH]ncc4c2)CC3)on1` [Example 78, 1-((1H-pyrazolo[3,4-b]pyridin-5-yl)methyl)-N-(3-(tert-butyl)isoxazol-5-yl)indoline-6-carboxamide], the Ki at DDR1 [1] and at DDR2 was less than 25 nM throughout. At DDR1 [2], this compound yielded an IC50 of less than 25 nM.

For the compound `CCC1CN(Cc2cnc3cnccn23)c2cc(C(=O)Nc3cc(-n4cnc(C)c4)cc(C(F)(F)F)c3)ccc21` (single isomer, unassigned) [Example 64, 3-ethyl-1-(imidazo[1,2-a]pyrazin-3-ylmethyl)-N-(3-(4-methyl-1H-imidazol-1-yl)-5-(trifluoromethyl)phenyl)indoline-6-carboxamide], the inhibition constant (Ki) at DDR1 [1] and at DDR2 was less than 25 nM in each case. This compound yielded a 50% inhibitory concentration (IC50) on DDR1 [2] of 25 to 50 nM.

For `Cc1cn(-c2cc(NC(=O)c3ccc4c(c3)N(Cc3ccc5[nH]cnc5c3)CC4)cc(C(F)(F)F)c2)cn1` [Example 4, 1-((1H-benzo[d]imidazol-5-yl)methyl)-N-(3-(4-methyl-1H-imidazol-1-yl)-5-(trifluoromethyl)phenyl)indoline-6-carboxamide], the inhibition constant (Ki) at DDR1 [1] and at DDR2 was less than 25 nM throughout. The compound further yielded an IC50 on DDR1 [2] of 25 to 50 nM.

Regarding `O=C(Nc1cccc(OC(F)(F)F)c1)c1ccc2c(c1)N(Cc1cnc3cnccn13)CC2` [Example 43, 1-(imidazo[1,2-a]pyrazin-3-ylmethyl)-N-(3-(trifluoromethoxy)phenyl)indoline-6-carboxamide], the Ki on DDR1 [1] and at DDR2 was less than 25 nM each time. At DDR1 [2], the IC50 fell in the range of 25 to 50 nM.

For `Cc1n[nH]c2ncc(CN3CCc4ccc(C(=O)Nc5cc(CN6CCCC6)cc(C(F)(F)F)c5)cc43)cc12` [Example 66, 1-((3-methyl-1H-pyrazolo[3,4-b]pyridin-5-yl)methyl)-N-(3-(pyrrolidin-1-ylmethyl)-5-(trifluoromethyl)phenyl)indoline-6-carboxamide], the Ki at DDR1 [1] and at DDR2 was less than 25 nM in each case. For the same compound, at DDR1 [2], the IC50 was less than 25 nM.

Take `Cc1n[nH]c2ncc(CN3CCc4ccc(C(=O)Nc5cc(CN6CC[C@@H](N(C)C)C6)nc(C(F)(F)F)c5)cc43)cc12` [Example 84, (R)-N-(2-((3-(dimethylamino)pyrrolidin-1-yl)methyl)-6-(trifluoromethyl)pyridin-4-yl)-1-((3-methyl-1H-pyrazolo[3,4-b]pyridin-5-yl)methyl)indoline-6-carboxamide]: the Ki on DDR1 [1] and on DDR2 was less than 25 nM in each case. The IC50 on DDR1 [2] was less than 25 nM.

As for `Cc1n[nH]c2ncc(CN3CCc4ccc(C(=O)Nc5cc(C(C)(C)C)on5)cc43)cc12` [Example 67, N-(5-(tert-butyl)isoxazol-3-yl)-1-((3-methyl-1H-pyrazolo[3,4-b]pyridin-5-yl)methyl)indoline-6-carboxamide], the Ki at DDR1 [1] and on DDR2 was less than 25 nM throughout. The compound also returned a 50% inhibitory concentration (IC50) against DDR1 [2] of less than 25 nM.

For `CC1CN(Cc2cnc3[nH]ncc3c2)c2cc(C(=O)Nc3cncc(C(F)(F)F)c3)ccc21` (stereo not drawn) [Example 91, 1-((1H-pyrazolo[3,4-b]pyridin-5-yl)methyl)-3-methyl-N-(5-(trifluoromethyl)pyridin-3-yl)indoline-6-carboxamide], the Ki on DDR1 [1] and on DDR2 was less than 25 nM throughout. At DDR1 [2], this compound registered an IC50 of less than 25 nM.
